Test results: patent US9428499B2, “Heterocyclyl compounds as MEK inhibitors” (LUPIN LIMITED, priority 2012, dated 2016)
Read-outs that look alike come from different tables or passages of the source.

Assays:
ERK phosphorylation = experiment: Analysis of ERK phosphorylation (Alphascreen SureFire Phospho-ERK 1/2); format: cell-based, human and mouse; conditions: read-out: Minimum concentration (nM) required for ≧80% inhibition of pERK
Outline: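 Human melanoma and human and mouse colon cancer cells were exposed to compounds for 1 h. Phospho-ERK1/2 was read by AlphaScreen SureFire. Percent inhibition was calculated from RFU relative to vehicle-treated and lysis-buffer controls.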

[1] = system: MEK phosphorylation (S218 and S222); experiment: Analysis of B-Raf-mediated MEK phosphorylation (Alphascreen SureFire Phospho-MEK); format: cell-based, human; conditions: 1 h, read-out: % Inhibition of MEK phosphorylation
Protocol: This assay was carried out with human melanoma cells. Cells were treated for 1 h with various concentrations of test compounds. MEK phosphorylation (S218 and S222) analysis was performed using the Alphascreen SureFire Phospho-MEK Kit (Perkin Elmer), by following the manufacturer's instructions. % inhibition of […] phosphorylation was determined as: 100−{(RFU test−RFU lysis buffer control)/(RFU vehicle treated control−RFU lysis buffer control)}×100.

[2] = cells treated for 1 h, human melanoma cells, human and mouse colon cancer cells
[3] = 1 nM, human melanoma cells, read-out: % Inhibition of MBK phosphorylation
[4] = 10 nM, human melanoma cells, read-out: % Inhibition of MBK phosphorylation
[5] = 100 nM, human melanoma cells, read-out: % Inhibition of MBK phosphorylation

Row | Compound | IC80 (ERK phosphorylation; 1 h) | inhibition at 0.001 µM ([1]; Homo sapiens) | inhibition at 0.01 µM ([1]; Homo sapiens) | inhibition at 0.1 µM ([1]; Homo sapiens) | IC80 (ERK phosphorylation; [2]) | inhibition at 0.001 µM [1, 3] | inhibition at 0.01 µM [1, 4] | inhibition at 0.1 µM [1, 5]
1 | Cc1c(=O)n(C)c(Nc2ccc(I)cc2F)c2c(=O)[nH]c(=O)n(-c3cccc(C4(C(N)=O)CC4)c3)c12 [Compound 77, 1-(3-(5-((2-fluoro-4-iodophenyl)amino)-6,8-dimethyl-2,4,7-trioxo-3,4,6,7-tetra hydropyrido[4,3-d]pyrimidin-1(2H)-yl)phenyl)cyclopropanecarboxamide] | 0.1 to 0.9 nM | 49% | 67.8% | 85.5% |  |  |  | 
2 | Cc1c(=O)n(C)c(Nc2ccc(I)cc2F)c2c(=O)n(C)c(=O)n(-c3cccc(OCC(N)=O)c3)c12 [Compound 57, 2-(3-(5-((2-fluoro-4-iodophenyl)amino)-3,6,8-trimethyl-2,4,7-trioxo-3,4,6,7-tetrahydropyrido[4,3-d]pyrimidin-1(2H)-yl)phenoxy)acetamide] |  |  |  |  | 1 to 3 nM | 63.3% | 76.4% | 83%
3 | CNC(=O)COc1cccc(-n2c(=O)[nH]c(=O)c3c(Nc4ccc(I)cc4F)n(C)c(=O)c(C)c32)c1 [Compound 5, 2-(3-(5-((2-fluoro-4-iodophenyl)amino)-6,8-dimethyl-2,4,7-trioxo-3,4,6,7-tetrahydropyrido[4,3-d]pyrimidin-1(2H)-yl)phenoxy)-N-methylacetamide] |  |  |  |  | 0.1 to 0.9 nM | 93.9% | 97.4% | 97.4%
4 | Cc1c(=O)n(C)c(Nc2ccc(I)cc2F)c2c(=O)n(C3CC3)c(=O)n(-c3cccc(C(=O)NC4CC4)c3)c12 [Compound 37, N-cyclopropyl-3-(3-cyclopropyl-5-((2-fluoro-4-iodophenyl)amino)-6,8-dimethyl-2,4,7-trioxo-3,4,6,7-tetrahydropyrido[4,3-d]pyrimidin-1(2H)-yl)benzamide] |  |  |  |  | 1 to 3 nM | 54.7% | 85.9% | 92.4%
5 | Cc1c(=O)n(C)c(Nc2ccc(I)cc2F)c2c(=O)[nH]c(=O)n(-c3cccc(OCC(N)=O)c3)c12 [Compound 16, 2-(3-(5-((2-fluoro-4-iodophenyl)amino)-6,8-dimethyl-2,4,7-trioxo-3,4,6,7-tetrahydropyrido[4,3-d]pyrimidin-1(2H)-yl)phenoxy)acetamide] |  |  |  |  | 1 to 3 nM | 89.2% | 93.3% | 94.7%
6 | Cc1c(=O)n(C)c(Nc2ccc(I)cc2F)c2c(=O)[nH]c(=O)n(-c3cccc(C(=O)NC4CC4)c3)c12 [Compound 2, N-cyclopropyl-3-(5-((2-fluoro-4-iodophenyl)amino)-6,8-dimethyl-2,4,7-trioxo-3,4,6,7-tetrahydropyrido[4,3-d]pyrimidin-1(2H)-yl)benzamide] |  |  |  |  | 0.01 nM | 72.2% | 93.4% | 96.4%
7 | Cc1c(=O)n(C)c(Nc2ccc(I)cc2F)c2c(=O)n(C3CC3)c(=O)n(-c3cccc(C4(C(N)=O)CC4)c3)c12 [Compound 78, 1-(3-(3-cyclopropyl-5-((2-fluoro-4-iodophenyl)amino)-6,8-dimethyl-2,4,7-trioxo-3,4,6,7-tetrahydropyrido[4,3-d]pyrimidin-1(2H)-yl)phenyl)cyclopropanecarboxamide] |  |  |  |  | 0.1 to 0.9 nM | 42.6% | 56.7% | 75.4%
8 | Cc1c(=O)n(C)c(Nc2ccc(I)cc2F)c2c(=O)n(C3CC3)c(=O)n(-c3cccc(CC(=O)N(C)C)c3)c12 [Compound 29, 2-(3-(3-cyclopropyl-5-((2-fluoro-4-iodophenyl)amino)-6,8-dimethyl-2,4,7-trioxo-3,4,6,7-tetrahydropyrido[4,3-d]pyrimidin-1(2H)-yl)phenyl)-N,N-dimethylacetamide] |  |  |  |  | 0.1 to 0.9 nM | 52.9% | 72.9% | 76.4%
